Consider five compounds from patent US6861440B2, “DPP IV inhibitors” (Hoffmann-La Roche Inc., priority 2001, dated 2005).

For the experiment, the target named is T1, human DPP-IV (Homo sapiens, UniProt P27487).
T1 construct: made in house; host or cells: Pichia pastoris
As to the kind of experiment: DPP-IV activity assay (fluorogenic or colorimetric substrate), IC50 determination. The settings on record: natural human DPP-IV from human plasma pool or recombinant human DPP-IV; 37° C., pH 7.8. In kind it is biochemical. The protocol:
Activity of DPP-IV inhibitors are tested with natural human DPP-IV derived from a human plasma pool or with recombinat human DPP-IV. Human citrate plasma from different donors is pooled, filterted through a 0.2 micron membrane under sterile conditions and aliquots of 1 ml are shock frozen and stored at −120° C. until used. In the calorimetric DPP-IV assay 5 to 10 μl human plasma and in the fluorometric assay 1.0 μl of human plasma in a total assay volume of 100 μl is used as an enzyme source. […] Human DPP-IV is expressed and purified from the cultur medium using conventional column chromatography including size exclusion and anion and cation chromatography. […] In the calorimetric DPP-IV assay 20 ng rec.-h DPP-IV and in the fluorometric assay 2 ng rec-h DPP-IV in a total assay volume of 100 μl is used as an enzyme source.
A 20 mM stock solution in 10% DMF/H2O is stored at −20° C. until use.
A 10 mM stock solution in 10% MeOH/H2O is stored at −20° C. until use.
Fluorescence is detected in a Perkin Elmer Luminescence Spectrometer LS 50B at an excitation wavelength of 400 nm and an emission wavelength of 505 nm continuously every 15 seconds for 10 to 30 minutes. Initial rate constants are calculated by best fit linear regression.
Initial rate constants are calculated by best fit linear regression.
DPP-IV activity assays are performed in 96 well plates at 37° C. in a total assay volume of 100 μl. The assay buffer consists of 50 mM Tris/HCl pH 7.8 containing 0.1 mg/ml BSA and 100 mM NaCl. Test compounds are solved in 100% DMSO, diluted to the desired concentration in 10% DMSO/H2O. The final DMSO concentration in the assay is 1% (v/v). […] Compounds are with (10 minutes at 37° C.) and without preincubation with the enzyme. Enzyme reactions are started with substrate application follwed by immediate mixing.
Kinetic parameters of the enzyme reaction are calculated at at least 5 different substrate concentrations and at least 5 different test compound concentrations.

pIC50: −log10 of the molar value.

T1 sequence (P27487 31-766): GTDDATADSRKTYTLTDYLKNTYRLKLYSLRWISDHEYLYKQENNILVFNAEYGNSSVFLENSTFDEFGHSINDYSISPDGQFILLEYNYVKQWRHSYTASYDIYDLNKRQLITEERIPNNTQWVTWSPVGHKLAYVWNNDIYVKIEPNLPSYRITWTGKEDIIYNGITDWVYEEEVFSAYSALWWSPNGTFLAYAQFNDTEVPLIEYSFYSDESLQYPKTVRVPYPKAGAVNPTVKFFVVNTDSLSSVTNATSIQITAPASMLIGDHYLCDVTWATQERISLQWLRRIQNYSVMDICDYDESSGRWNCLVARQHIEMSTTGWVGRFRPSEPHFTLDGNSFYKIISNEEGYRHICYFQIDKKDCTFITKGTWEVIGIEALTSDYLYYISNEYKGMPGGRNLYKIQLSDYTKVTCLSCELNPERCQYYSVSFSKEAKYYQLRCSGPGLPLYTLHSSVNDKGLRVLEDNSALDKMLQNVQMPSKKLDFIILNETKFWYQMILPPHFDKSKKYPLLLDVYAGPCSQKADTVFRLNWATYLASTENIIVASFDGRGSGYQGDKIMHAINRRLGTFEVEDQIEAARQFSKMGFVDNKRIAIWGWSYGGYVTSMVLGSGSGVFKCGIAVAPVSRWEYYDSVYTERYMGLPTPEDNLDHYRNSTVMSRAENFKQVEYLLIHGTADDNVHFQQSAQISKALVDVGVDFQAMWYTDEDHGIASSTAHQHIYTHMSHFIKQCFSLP

Take `Cc1c(C)n(C[C@H](C)NCC(=O)N2CCC[C@H]2C#N)c2ccccc12` [Example 7, (2S)-1-{[(1S)-2-(2,3-Dimethyl-indol-1-yl)-1-methyl-ethylamino]-acetyl}-pyrrolidine-2-carbonitrile]: the pIC50 (usually −log10 of the IC50, conventionally taken in molar units) was 7.06.

As to `COc1cc2c(C(=O)C(F)(F)F)cn(C[C@H](C)NCC(=O)N3CCC[C@H]3C#N)c2cc1OC` [Example 23, (2S)-1-{[(1S)-2-(5,6-Dimethoxy-3-trifluoroacetyl-indol-1-yl)-1-methyl-ethylamino]-acetyl}-pyrrolidine-2-carbonitrile], the pIC50 is 6.89.

`CC(C)(CNc1ccc(-c2cccc(C(F)(F)F)c2)cn1)NCC(=O)N1CCC[C@H]1C#N` [Example 119, (2S)-1-({1,1-Dimethyl-2-[5-(3-trifluoromethyl-phenyl)-pyridin-2-ylamino]-ethylamino}-acetyl)-pyrrolidine-2-carbonitrile]: the pIC50 is 8.15.

For `CC(C)(CNc1cccc(-c2ccccc2)n1)NCC(=O)N1CCC[C@H]1C#N` [Example 129, (2S)-1-{[1,1-Dimethyl-2-(6-phenyl-pyridin-2-ylamino)-ethylamino]-acetyl}-pyrrolidine-2-carbonitrile], the pIC50 is 9.00.

On to `Cc1cccc(-c2nc(CC(C)(C)NCC(=O)N3CCC[C@H]3C#N)c(C)[nH]2)c1` [Example 188, (2S)-1-{[1,1-Dimethyl-2-(5-methyl-2-m-tolyl-1H-imidazol-4-yl)-ethylamino]-acetyl}-pyrrolidine-2-carbonitrile], for which the pIC50 is 9.00.
